For this test, the system named is NK-LAAO (native Naja kaouthia L-amino acid oxidase). Type of test: biochemical. The settings on record: 100 mM Tris-HCl pH 8.5, 25 °C.

Read-outs that look alike come from different tables or passages of the source.

A word on the Km: it is the concentration of substrate that gives half-maximal velocity. For the molecule `N[C@@H](CCC(=O)O)C(=O)O` [L-Glu], the Km (0.625-20 mM substrate, 240 min) turned out to be 3560 ± 353 µM.

In the case of `N=C(N)NCCC[C@H](N)C(=O)O` [L-Arg], where the note is “0.125-4 mM substrate, 2 min”, the Km is 3100 ± 448 µM.

On to `N[C@@H](Cc1c[nH]c2ccccc12)C(=O)O` [L-Trp], for which the Km (0.03125-1 mM substrate, 2 min) worked out at 471 ± 25.9 µM.

For `CC(C)C[C@H](N)C(=O)O` [L-Leu], the Km (0.0625-4 mM substrate, 4 min) was 637 ± 34.5 µM.

For the molecule `CSCC[C@H](N)C(=O)O` [L-Met], the Km (0.03125-4 mM substrate, 2 min) was 587 ± 9.5 µM.
